# Results as given in patent publication US20240166624A1, “PPARG INVERSE AGONISTS AND USES THEREOF” (Flare Therapeutics Inc., priority 2021, published 2024).
# Key:
# [1] = biological target: T1, PPARG/RXRA LBD heterodimer (Homo sapiens, UniProt P37231); experiment: PPARγ-NCOR1 recruitment assay (TR-FRET, biotinylated NCOR1 ID2 peptide); assay type: biochemical; conditions: 80 nM Rosiglitazone, 3 hours, read-out: PPARG-NCOR recruitment assay EC50
# T1 construct: His-TEV-Q203-Y477; Uniprot ID P37231-2; made in house; host or cells: E. coli
# Procedure, shortened: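 2 nM each of E. coli-expressed PPARG LBD (Q203-Y477) and RXRA LBD (WT or S427F, E228-T462) with biotinylated NCOR1 ID2 peptide, incubated 3 h; TR-FRET read at Ex/Em 615/665. Ratios normalized to DMSO (0%) and T0070907 maximum (100%) for EC50 and maximal recruitment.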
# T1 sequence (O75376 2251-2273 partner, one chain of several): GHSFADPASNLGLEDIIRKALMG
# [2] = biological target: T2, PPARG/RXRA LBD heterodimer (Homo sapiens, UniProt P37231); experiment: PPARγ-MED1 blockade assay (TR-FRET, biotinylated MED1 LxxLL peptide); assay type: biochemical; conditions: WT PPARG LBD/WT RXRA LBD, 80 nM Rosiglitazone, 3 hours
# T2 construct: His-TEV-Q203-Y477; Uniprot ID P37231-2; made in house; host or cells: E. coli
# T2 sequence (P37231 203-477 isoform P37231-2): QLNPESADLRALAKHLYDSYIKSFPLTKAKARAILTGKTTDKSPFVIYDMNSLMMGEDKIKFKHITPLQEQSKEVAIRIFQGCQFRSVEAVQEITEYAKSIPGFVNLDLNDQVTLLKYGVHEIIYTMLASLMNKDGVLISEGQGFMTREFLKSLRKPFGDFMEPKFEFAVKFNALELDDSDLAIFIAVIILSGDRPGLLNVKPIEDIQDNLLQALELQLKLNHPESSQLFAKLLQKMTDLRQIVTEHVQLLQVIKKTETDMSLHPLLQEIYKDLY
# T2 sequence (P19793 228-462 partner limits assumed): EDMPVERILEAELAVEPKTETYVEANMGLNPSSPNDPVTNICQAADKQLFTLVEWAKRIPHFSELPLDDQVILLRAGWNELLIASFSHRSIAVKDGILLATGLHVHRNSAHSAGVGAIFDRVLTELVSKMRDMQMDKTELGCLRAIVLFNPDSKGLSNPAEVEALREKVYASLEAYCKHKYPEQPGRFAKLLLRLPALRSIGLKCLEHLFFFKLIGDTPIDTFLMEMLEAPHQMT
# Procedure, shortened: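 TR-FRET measuring biotinylated MED1 LxxLL peptide association with 2 nM each His-PPARG LBD (Q203-Y477) and Flag-RXRA LBD (E228-T462), E. coli expressed. Read after 3 h incubation; ratios normalized to DMSO (0%) and GW9662 minimum (100%) for IC50 and maximal MED1 repulsion.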
# [3] = test system: ANGPTL4, a PPARG target gene, in HT1197 (RXRA S427F mutation) cells; experiment: Bladder cancer pharmacodynamic assay, HT1197 cell assay (qPCR of ANGPTL4); assay type: cell-based; conditions: Homo sapiens, 24 hours, 100 nM compound, relative to DMSO control
# Procedure, shortened: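 5637 (PPARG amplified) and HT1197 (RXRA S427F) cells treated 24 h with PPARG inverse agonists. FABP4 and ANGPTL4 expression measured by qPCR, normalised to TBP, and reported relative to DMSO control by ΔΔCt.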
SMILES,EC50 [1] [nM],EC50 [2] [nM],inhibition at 0.1 µM [3] [%]
"CC(=O)N1CCN(c2c(F)cc3[nH]c(-c4cc(C#N)ccc4Cl)cc(=O)c3c2F)CC1 [Example 96, 3-(6-(4-acetylpiperazin-1-yl)-5,7-difluoro-4-oxo-1,4-dihydroquinolin-2-yl)-4-chlorobenzonitrile]",1000 to 10000,1000 to 10000,82
"N#Cc1ccc(Cl)c(-c2cc(=O)c3c(F)c(-c4cc[nH]n4)c(F)cc3[nH]2)c1 [Example 97, 4-chloro-3-(5,7-difluoro-4-oxo-6-(1H-pyrazol-3-yl)-1,4-dihydroquinolin-2-yl)benzonitrile]",100 to 1000,100 to 1000,52
"N#Cc1ccc(Cl)c(-c2cc(=O)c3c(F)c(N4CC5(COC5)C4)c(F)cc3[nH]2)c1 [Example 98, 4-chloro-3-(5,7-difluoro-4-oxo-6-(2-oxa-6-azaspiro[3.3]heptan-6-yl)-14-dihydroquinolin-2-yl)benzonitrile]",100 to 1000,1000 to 10000,87
"CN1CC2(C1)CN(c1c(F)cc3[nH]c(-c4cc(C#N)ccc4Cl)cc(=O)c3c1F)C2 [Example 99, 4-chloro-3-(5,7-difluoro-6-(6-methyl-2,6-diazaspiro[3.3]heptan-2-yl)-4-oxo-1,4-dihydroquinolin-2-yl)benzonitrile]",> 10000,> 10000,59
"CN(C)C1CN(c2c(F)cc3[nH]c(-c4cc(C#N)ccc4Cl)cc(=O)c3c2F)C1 [Example 100, 4-chloro-3-(6-(3-(dimethylamino)azetidin-1-yl)-5,7-difluoro-4-oxo-1,4-dihydroquinolin-2-yl)benzonitrile]",1000 to 10000,1000 to 10000,87
"CS(=O)(=O)C1CN(c2c(F)cc3[nH]c(-c4cc(C#N)ccc4Cl)cc(=O)c3c2F)C1 [Example 101, 4-chloro-3-(5,7-difluoro-6-(3-(methylsulfonyl)azetidin-1-yl)-4-oxo-1,4-dihydroquinolin-2-yl)benzonitrile]",1000 to 10000,1000 to 10000,52
"CN(C)C(=O)C1CN(c2c(F)cc3[nH]c(-c4cc(C#N)ccc4Cl)cc(=O)c3c2F)C1 [Example 102, 1-(2-(2-chloro-5-cyanophenyl)-5,7-difluoro-4-oxo-1,4-dihydroquinolin-6-yl)-N,N-dimethylazetidine-3-carboxamide]",1000 to 10000,1000 to 10000,81
"COC1CN(c2c(F)cc3[nH]c(-c4cc(C#N)ccc4Cl)cc(=O)c3c2F)C1 [Example 103, 4-chloro-3-(5,7-difluoro-6-(3-methoxyazetidin-1-yl)-4-oxo-1,4-dihydroquinolin-2-yl)benzonitrile]",1000 to 10000,1000 to 10000,82
"CO[C@H]1CCN(c2c(F)cc3[nH]c(-c4cc(C#N)ccc4Cl)cc(=O)c3c2F)C1 [Example 104, (S)-4-chloro-3-(5,7-difluoro-6-(3-methoxypyrrolidin-1-yl)-4-oxo-1,4-dihydroquinolin-2-yl)benzonitrile]",100 to 1000,100 to 1000,78
"CN1CCN(c2cc3c(=O)cc(-c4cc(C#N)ccc4Cl)[nH]c3cc2Cl)CC1 [Example 105, 4-chloro-3-(7-chloro-6-(4-methylpiperazin-1-yl)-4-oxo-1,4-dihydroquinolin-2-yl)benzonitrile]",1000 to 10000,1000 to 10000,60
"CO[C@@H]1CCN(c2c(F)cc3[nH]c(-c4cc(C#N)ccc4Cl)cc(=O)c3c2F)C1 [Example 106, (R)-4-chloro-3-(5,7-difluoro-6-(3-methoxypyrrolidin-1-yl)-4-oxo-1,4-dihydroquinolin-2-yl)benzonitrile]",100 to 1000,100 to 1000,75
"N#Cc1ccc(Cl)c(-c2cc(=O)c3c(F)c(N4CCOCC4)c(F)cc3[nH]2)c1 [Example 107, 4-chloro-3-(5,7-difluoro-6-morpholino-4-oxo-1,4-dihydroquinolin-2-yl)benzonitrile]",100 to 1000,100 to 1000,80
"CN(C)[C@H]1CCN(c2c(F)cc3[nH]c(-c4cc(C#N)ccc4Cl)cc(=O)c3c2F)C1 [Example 108, (S)-4-chloro-3-(6-(3-(dimethylamino)pyrrolidin-1-yl)-5,7-difluoro-4-oxo-1,4-dihydroquinolin-2-yl)benzonitrile]",1000 to 10000,1000 to 10000,65
"CN(C)[C@@H]1CCN(c2c(F)cc3[nH]c(-c4cc(C#N)ccc4Cl)cc(=O)c3c2F)C1 [Example 109, (R)-4-chloro-3-(6-(3-(dimethylamino)pyrrolidin-1-yl)-5,7-difluoro-4-oxo-1,4-dihydroquinolin-2-yl)benzonitrile]",1000 to 10000,1000 to 10000,65
"N#Cc1ccc(Cl)c(-c2cc(=O)c3c(F)c(N4CCS(=O)(=O)CC4)c(F)cc3[nH]2)c1 [Example 110, 4-chloro-3-(6-(1,1-dioxidothiomorpholino)-5,7-difluoro-4-oxo-1,4-dihydroquinolin-2-yl)benzonitrile]",1000 to 10000,1000 to 10000,37
"CN1CCN(c2c(F)cc3[nH]c(-c4cc(C#N)ccc4Cl)cc(=O)c3c2F)CC1=O [Example 111, 4-chloro-3-(5,7-difluoro-6-(4-methyl-3-oxopiperazin-1-yl)-4-oxo-1,4-dihydroquinolin-2-yl)benzonitrile]",1000 to 10000,1000 to 10000,43
"CN(C)C(=O)C1CCN(c2c(F)cc3[nH]c(-c4cc(C#N)ccc4Cl)cc(=O)c3c2F)CC1 [Example 112, 1-(2-(2-chloro-5-cyanophenyl)-5,7-difluoro-4-oxo-1,4-dihydroquinolin-6-yl)-N,N-dimethylpiperidine-4-carboxamide]",1000 to 10000,1000 to 10000,66
"CN(C)C(=O)N1CCN(c2c(F)cc3[nH]c(-c4cc(C#N)ccc4Cl)cc(=O)c3c2F)CC1 [Example 113, 4-(2-(2-chloro-5-cyanophenyl)-5,7-difluoro-4-oxo-1,4-dihydroquinolin-6-yl)-N,N-dimethylpiperazine-1-carboxamide]",1000 to 10000,1000 to 10000,80
"CN(C)C(=O)[C@@H]1CCCN(c2c(F)cc3[nH]c(-c4cc(C#N)ccc4Cl)cc(=O)c3c2F)C1 [Example 114, (R)-1-(2-(2-chloro-5-cyanophenyl)-5,7-difluoro-4-oxo-1,4-dihydroquinolin-6-yl)-N,N-dimethylpiperidine-3-carboxamide]",100 to 1000,100 to 1000,60
"CN(C)C(=O)[C@H]1CCCN(c2c(F)cc3[nH]c(-c4cc(C#N)ccc4Cl)cc(=O)c3c2F)C1 [Example 115, (S)-1-(2-(2-chloro-5-cyanophenyl)-5,7-difluoro-4-oxo-1,4-dihydroquinolin-6-yl)-N,N-dimethylpiperidine-3-carboxamide]",100 to 1000,1000 to 10000,80
"CN(C)C(=O)[C@@H]1CCN(c2c(F)cc3[nH]c(-c4cc(C#N)ccc4Cl)cc(=O)c3c2F)C1 [Example 116, (R)-1-(2-(2-chloro-5-cyanophenyl)-5,7-difluoro-4-oxo-1,4-dihydroquinolin-6-yl)-N,N-dimethylpyrrolidine-3-carboxamide]",100 to 1000,1000 to 10000,84
"CN(C)C(=O)[C@H]1CCN(c2c(F)cc3[nH]c(-c4cc(C#N)ccc4Cl)cc(=O)c3c2F)C1 [Example 117, (S)-1-(2-(2-chloro-5-cyanophenyl)-5,7-difluoro-4-oxo-1,4-dihydroquinolin-6-yl)-N,N-dimethylpyrrolidine-3-carboxamide]",1000 to 10000,1000 to 10000,79
